US11147272B2, “Pyridone compounds and agricultural and horticultural fungicides comprising the same as active ingredients” (MITSUI CHEMICALS AGRO, INC., priority 2017, dated 2021)

Assays:
Magnaporthe grisea = assay: whole plant or invertebrate; format: in vivo; conditions: for Test A control value class: class of control value
Alternaia brassicicola = assay: Test Example C: Alternaria sooty spot on cabbage; format: in vivo
From the text: Seeds of a test plant (cabbage variety: Shikidori) were planted and cultivated until the cotyledons extended.
<Control Value> Control value=100{1−(n/3)}

Puccinia recondita = assay: Test Example E: Brown rust on wheat; format: in vivo
Phytophthora infestans = assay: whole plant or invertebrate; format: in vivo; conditions: for Test F control value class: class of control value
Botrytis cinerea = assay: Test Example B: Gray mold on tomato; conditions: for Test B control value class: class of control value
Plasmopara viticola = assay: Test Example G: Downy mildew on vine; conditions: for Test G control value: 7 to 10 days after inoculation; for Test G control value class: Downy mildew on vine (Neomuscat), 2.5 ml/pot, assessed 7 to 10 days after inoculation
[1] = test system: Colletotrichum orbiculare; assay: Test Example H: Anthracnose on cucumber; conditions: for Test H control value: 6 to 10 days after inoculation; for Test H control value class: Anthracnose on cucumber (Sagami Hanjiro), 2.5 ml/pot, assessed 6 to 10 days after inoculation
[2] = test system: Blumeria graminis f. sp. hordei; assay: Test Example D: Powdery mildew on barley; conditions: for Test D control value class: class of control value
[3] = 250 ppm drug solution sprayed on test plant
[4] = 250 ppm drug solution sprayed (2.5 ml/pot), grape Neomuscat
[5] = 250 ppm drug solution sprayed (2.5 ml/pot), cucumber Sagami Hanjiro
[6] = Blast on rice, control value class
[7] = Alternaria sooty spot on cabbage, control value class
[8] = Brown rust on wheat, control value class
[9] = Late blight on tomato, control value class
[10] = Gray mold on tomato, control value class
[11] = Downy mildew on vine, 250 ppm spray
[12] = Anthracnose on cucumber, 250 ppm spray
[13] = Powdery mildew on barley, control value class
[14] = Alternaria sooty spot on cabbage, class of control value
[15] = Brown rust on wheat, class of control value

CCCc1cc(I)c(=O)n(CC(F)F)c1-c1c(F)cc(F)cc1F [compound 473]
L (50% or less control value): Test F control value (Phytophthora infestans; [3]) | Test G control value (Plasmopara viticola; [4]) | Test H control value [1, 5]
H (more than 50% control value): Test A control value (Magnaporthe grisea; [3]) | Test C control value (Alternaia brassicicola; [3]) | Test E control value (Puccinia recondita; [3]) | Test B control value (Botrytis cinerea; [3]) | Test D control value [2, 3]

CCC(OC)c1cc(Br)c(=O)n(CC)c1-c1c(F)cc(F)cc1F (stereo not shown) [compound 504]
H (more than 50% control value): Test A control value (Magnaporthe grisea; [3]) | Test C control value (Alternaia brassicicola; [3]) | Test E control value (Puccinia recondita; [3]) | Test B control value (Botrytis cinerea; [3]) | Test G control value (Plasmopara viticola; [4]) | Test H control value [1, 5] | Test D control value [2, 3]
L (50% or less control value): Test F control value (Phytophthora infestans; [3])

CCn1c(-c2c(F)cc(F)cc2F)c(C(Br)=CBr)cc(Cl)c1=O [compound 326]
L (50% or less control value): Test F control value (Phytophthora infestans; [9]) | Test G control value (Plasmopara viticola; [11])
H (more than 50% control value): Test A control value (Magnaporthe grisea; [6]) | Test C control value (Alternaia brassicicola; [7]) | Test E control value (Puccinia recondita; [8]) | Test B control value (Botrytis cinerea; [10]) | Test H control value [1, 12] | Test D control value [2, 13]

CCn1c(-c2ccc(OC)cc2)c(CC(C)C)ccc1=O [compound 194]
L (50% or less control value): Test C control value (Alternaia brassicicola; [7]) | Test F control value (Phytophthora infestans; [9]) | Test G control value (Plasmopara viticola; [11]) | Test H control value [1, 12]
H (more than 50% control value): Test A control value (Magnaporthe grisea; [6]) | Test E control value (Puccinia recondita; [8]) | Test B control value (Botrytis cinerea; [10]) | Test D control value [2, 13]

CCCc1cc(Br)c(=O)n(CC)c1-c1c(F)cc(OC)cc1F [compound 385]
H (more than 50% control value): Test A control value (Magnaporthe grisea; [3]) | Test C control value (Alternaia brassicicola; [3]) | Test E control value (Puccinia recondita; [3]) | Test B control value (Botrytis cinerea; [3]) | Test G control value (Plasmopara viticola; [4]) | Test H control value [1, 5] | Test D control value [2, 3]
L (50% or less control value): Test F control value (Phytophthora infestans; [3])

CCN(Cc1cc(Cl)c(=O)n(CC)c1-c1c(F)cc(F)cc1F)OC [compound 151]
L (50% or less control value): Test F control value class (Phytophthora infestans; Late blight on tomato)
H (more than 50% control value): Test A control value class (Magnaporthe grisea; Blast on rice) | Test C control value class (Alternaia brassicicola; [14]) | Test E control value class (Puccinia recondita; [15]) | Test B control value class (Botrytis cinerea; Gray mold on tomato) | Test G control value class (Plasmopara viticola; 250 ppm spray) | Test H control value class ([1]; 250 ppm spray) | Test D control value class ([2]; Powdery mildew on barley)

CCn1c(-c2c(F)cc(OC)cc2F)c(C(C)(OC)C(C)C)cc(Cl)c1=O (racemic) [compound 110]
H (more than 50% control value): Test A control value class (Magnaporthe grisea; Blast on rice) | Test C control value class (Alternaia brassicicola; [14]) | Test E control value class (Puccinia recondita; [15]) | Test B control value class (Botrytis cinerea; Gray mold on tomato) | Test G control value class (Plasmopara viticola; 250 ppm spray) | Test H control value class ([1]; 250 ppm spray) | Test D control value class ([2]; Powdery mildew on barley)
L (50% or less control value): Test F control value class (Phytophthora infestans; Late blight on tomato)

CCC(O)c1cc(Cl)c(=O)n(CC)c1-c1c(F)cc(OC)cc1F (stereo not shown) [compound 50]
H (more than 50% control value): Test A control value class (Magnaporthe grisea; Blast on rice) | Test C control value class (Alternaia brassicicola; [14]) | Test E control value class (Puccinia recondita; [15]) | Test B control value class (Botrytis cinerea; Gray mold on tomato) | Test G control value class (Plasmopara viticola; 250 ppm spray) | Test H control value class ([1]; 250 ppm spray)
L (50% or less control value): Test F control value class (Phytophthora infestans; Late blight on tomato) | Test D control value class ([2]; Powdery mildew on barley)

CCn1c(-c2c(F)cc(OCCOC)cc2F)c(C(C)(C)C)cc(Cl)c1=O [compound 83]
L (50% or less control value): Test F control value class (Phytophthora infestans; Late blight on tomato) | Test D control value class ([2]; Powdery mildew on barley)
H (more than 50% control value): Test A control value class (Magnaporthe grisea; Blast on rice) | Test C control value class (Alternaia brassicicola; [14]) | Test E control value class (Puccinia recondita; [15]) | Test B control value class (Botrytis cinerea; Gray mold on tomato) | Test G control value class (Plasmopara viticola; 250 ppm spray) | Test H control value class ([1]; 250 ppm spray)

CCOC(C)(c1cc(Cl)c(=O)n(CC)c1-c1ccc(OC)cc1)C(C)C (stereo not shown) [compound 247]
H (more than 50% control value): Test B control value (Botrytis cinerea; [10]) | Test D control value [2, 13]
L (50% or less control value): Test A control value (Magnaporthe grisea; [6]) | Test C control value (Alternaia brassicicola; [7]) | Test E control value (Puccinia recondita; [8]) | Test F control value (Phytophthora infestans; [9]) | Test G control value (Plasmopara viticola; [11]) | Test H control value [1, 12]

CCn1c(-c2ccccc2Cl)c(CC(C)C)cc(Cl)c1=O [compound 265]
H (more than 50% control value): Test A control value (Magnaporthe grisea; [6]) | Test C control value (Alternaia brassicicola; [7]) | Test E control value (Puccinia recondita; [8]) | Test B control value (Botrytis cinerea; [10]) | Test G control value (Plasmopara viticola; [11]) | Test H control value [1, 12] | Test D control value [2, 13]
L (50% or less control value): Test F control value (Phytophthora infestans; [9])

CCCc1ccc(=O)n(CCC)c1-c1c(F)cc(F)cc1F [compound 437]
L (50% or less control value): Test A control value (Magnaporthe grisea; [3]) | Test C control value (Alternaia brassicicola; [3]) | Test E control value (Puccinia recondita; [3]) | Test F control value (Phytophthora infestans; [3]) | Test B control value (Botrytis cinerea; [3]) | Test G control value (Plasmopara viticola; [4])
H (more than 50% control value): Test H control value [1, 5] | Test D control value [2, 3]

CCn1c(-c2c(F)cc(F)cc2F)c(C(C)C)ccc1=O [Compound No. 7, 1-ethyl-5-isopropyl-6-(2,4,6-trifluorophenyl)pyridin-2(1H)-one]
> 50%: pest or weed control at 250 µg/mL (Magnaporthe grisea; Pyricularia oryzae, in Oryza sativa, read-out: Test A control value class) | pest or weed control at 250 µg/mL (Alternaia brassicicola; Brassica oleracea, topical, Alternaria sooty spot on cabbage, class of control value, read-out: Test C control value class) | pest or weed control at 250 µg/mL (Puccinia recondita; Puccinia recondita, topical, Brown rust on wheat, class of control value, read-out: Test E control value class) | pest or weed control at 250 µg/mL (Botrytis cinerea; Botrytis cinerea, in Solanum lycopersicum, topical, read-out: Test B control value class) | pest or weed control at 250 ppm (Plasmopara viticola; Plasmopara viticola, topical, read-out: Test G control value class) | pest or weed control at 250 ppm ([1]; Colletotrichum orbiculare, in Cucumis sativus, topical, read-out: Test H control value class) | pest or weed control at 250 µg/mL ([2]; Blumeria graminis, in Hordeum vulgare, topical, read-out: Test D control value class)
< 50%: pest or weed control at 250 µg/mL (Phytophthora infestans; Phytophthora infestans, in Solanum lycopersicum, topical, read-out: Test F control value class)

CCCc1ccc(=O)n(C)c1-c1ccc(OC)cc1C [compound 425]
H (more than 50% control value): Test A control value (Magnaporthe grisea; [3]) | Test H control value [1, 5]
L (50% or less control value): Test C control value (Alternaia brassicicola; [3]) | Test F control value (Phytophthora infestans; [3]) | Test G control value (Plasmopara viticola; [4])

C=Cc1cc(Cl)c(=O)n(CC)c1-c1c(F)cc(F)cc1F [compound 517]
H (more than 50% control value): Test C control value (Alternaia brassicicola; [3]) | Test G control value (Plasmopara viticola; [4]) | Test H control value [1, 5]
L (50% or less control value): Test A control value (Magnaporthe grisea; [3]) | Test F control value (Phytophthora infestans; [3])

CCn1c(-c2c(F)cc(F)cc2F)c(C(C)OC)cc(Cl)c1=O (stereo not shown) [compound 519]
H (more than 50% control value): Test A control value (Magnaporthe grisea; [3]) | Test C control value (Alternaia brassicicola; [3]) | Test E control value (Puccinia recondita; [3]) | Test B control value (Botrytis cinerea; [3]) | Test G control value (Plasmopara viticola; [4]) | Test H control value [1, 5]
L (50% or less control value): Test F control value (Phytophthora infestans; [3])
